The record followed here is US11505543B2, “4-oxo-3,4-dihydroquinazoline compounds as inhibitors of human immunodeficiency virus replication” (VIIV HEALTHCARE UK (NO.5) LIMITED, priority 2018, dated 2022).

Data set [1] in a line: Compound cytotoxicity, XTT-based colorimetric assay. Format: cell-based. The conditions noted are these: human, uninfected MT2 cells, day 4, XTT. A digest of the protocol:
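Run under the antiviral-assay protocol but without virus. Viability was read on day 4 and CC50 values were derived from the readout.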
In general terms: Tetrazolium dyes change colour on reduction, which living cells bring about.

The subject of data set [2] is recombinant NL4-3 virus (nef section replaced with Renilla luciferase gene) in MT-2 cells. As to the kind of experiment: HIV cell culture assay (antiviral activity, luciferase readout). Format: cell-based. The conditions noted are these: serial dilutions of compound. A digest of the protocol: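 EC50 was derived by median-effect curve fitting of luciferase activity. The signal comes from MT-2 cells infected for 4–5 days with 293T-produced NL4-3 reporter virus, nef partly replaced by Renilla luciferase, in the presence of serially diluted compound.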

[3] abbreviates: Renilla, NL43, MT-2 cells infected for 4-5 days with recombinant NL4-3 Renilla luciferase virus.

In data set [1], `O=C(Cn1nc(C(F)F)cc1C(F)F)N[C@@H](Cc1cc(F)cc(F)c1)c1nc2cc(-c3ccccn3)ccc2c(=O)n1-c1ccc(Cl)c2c(NS(=O)(=O)C3CC3)nn(CC(F)F)c12` [Example 190, (S)-2-(3,5-bis(difluoromethyl)-1H-pyrazol-1-yl)-N-(1-(3-(4-chloro-3-(cyclopropanesulfonamido)-1-(2,2-difluoroethyl)-1H-indazol-7-yl)-4-oxo-7-(pyridin-2-yl)-3,4-dihydroquinazolin-2-yl)-2-(3,5-difluorophenyl)ethyl)acetamide] registered a CC50 at 4 day of over 500 nM. Moreover, in data set [2] (setting [3]), the EC50 is 2.1 nM.

With `CC(C(=O)N[C@@H](Cc1cc(F)cc(F)c1)c1nc2cc(-c3ccccc3F)ccc2c(=O)n1-c1ccc(Cl)c2c(NS(=O)(=O)C3CC3)nn(CC(F)F)c12)n1ccc(C2CC2)n1` (single isomer, unassigned) [Example 133], the CC50 at 4 day in data set [1] was over 500 nM. For the same compound, the EC50 in data set [2] (MT-2 cells infected for 4-5 days with recombinant NL4-3 Renilla luciferase virus) is 1.6 nM.

`Cn1nc(NS(C)(=O)=O)c2c(Cl)ccc(-n3c([C@H](Cc4cc(F)cc(F)c4)NC(=O)Cn4nc(C(F)F)c5c4C(F)(F)[C@@H]4C[C@H]54)nc4cc(-c5ncccn5)ccc4c3=O)c21` (atropisomer, axis not shown; (aR)) [Example 40, N-((S)-1-(3-(4-chloro-1-methyl-3-(methylsulfonamido)-1H-indazol-7-yl)-4-oxo-7-(pyrimidin-2-yl)-3,4-dihydroquinazolin-2-yl)-2-(3,5-difluorophenyl)ethyl)-2-((3bS,4aR)-3-(difluoromethyl)-5,5-difluoro-3b,4,4a,5-tetrahydro-1H-cyclopropa[3,4]cyclopenta[1,2-c]pyrazol-1-yl)acetamide] displayed a 50% cytotoxic concentration (CC50) at 4 day in data set [1] of over 1000 nM. Moreover, the EC50 in data set [2] (setting [3]) is 0.025 nM.

In data set [1], `CC(C)c1ccc(-c2ccc3c(=O)n(-c4ccc(Cl)c5c(NS(C)(=O)=O)nn(C)c45)c([C@H](Cc4cc(F)cc(F)c4)NC(=O)Cn4nc(C(F)F)c5c4C(F)(F)[C@@H]4C[C@H]54)nc3c2)cc1` (atropisomer, axis not shown; (aR)) [Example 59, N-((S)-1-(3-(4-chloro-1-methyl-3-(methylsulfonamido)-1H-indazol-7-yl)-7-(4-isopropylphenyl)-4-oxo-3,4-dihydroquinazolin-2-yl)-2-(3,5-difluorophenyl)ethyl)-2-((3bS,4aR)-3-(difluoromethyl)-5,5-difluoro-3b,4,4a,5-tetrahydro-1H-cyclopropa[3,4]cyclopenta[1,2-c]pyrazol-1-yl)acetamide] showed a 50% cytotoxic concentration (CC50) at 4 day of over 1000 nM. In addition, the concentration giving a half-maximal response (EC50) in data set [2] (setting [3]) amounted to 5.3 nM.

In the case of `Cc1nccnc1-c1ccc2c(=O)n(-c3ccc(Cl)c4c(NS(=O)(=O)C5CC5)nn(CC(F)F)c34)c([C@H](Cc3cc(F)cc(F)c3)NC(=O)Cn3nc(C(F)F)c4c3C(F)(F)[C@@H]3C[C@H]43)nc2c1` (atropisomer, axis not shown; (aR)) [Example 126, N-((S)-1-(3-(4-chloro-3-(cyclopropanesulfonamido)-1-(2,2-difluoroethyl)-1H-indazol-7-yl)-7-(3-methylpyrazin-2-yl)-4-oxo-3,4-dihydroquinazolin-2-yl)-2-(3,5-difluorophenyl)ethyl)-2-((3bS,4aR)-3-(difluoromethyl)-5,5-difluoro-3b,4,4a,5-tetrahydro-1H-cyclopropa[3,4]cyclopenta[1,2-c]pyrazol-1-yl)acetamide], the 50% cytotoxic concentration (CC50) at 4 day in data set [1] was over 500 nM. The EC50 in data set [2] (setting [3]) is 0.052 nM.

Compound `O=C(Cn1ccc(C2CC2)n1)N[C@@H](Cc1cc(F)cc(F)c1)c1nc2cc(-c3c(Cl)cccc3Cl)ccc2c(=O)n1-c1ccc(S(=O)(=O)N2CCOCC2)cc1` [Example 114, (S)-2-(3-cyclopropyl-1H-pyrazol-1-yl)-N-(1-(7-(2,6-dichlorophenyl)-3-(4-(morpholinosulfonyl)phenyl)-4-oxo-3,4-dihydroquinazolin-2-yl)-2-(3,5-difluorophenyl)ethyl)acetamide] displayed a CC50 at 4 day in data set [1] of over 1000 nM. Moreover, the concentration giving a half-maximal response (EC50) in data set [2] (setting [3]) worked out at 15 nM.

Consider `COc1ccc(-c2ccc3c(=O)n(-c4ccc(S(=O)(=O)N5CCOCC5)cc4)c([C@H](Cc4cc(F)cc(F)c4)NC(=O)Cn4nc(C(F)F)c5c4C(F)(F)[C@@H]4C[C@H]54)nc3c2)cn1` [Example 112, 2-((3bS,4aR)-3-(difluoromethyl)-5,5-difluoro-3b,4,4a,5-tetrahydro-1H-cyclopropa[3,4]cyclopenta[1,2-c]pyrazol-1-yl)-N-((S)-2-(3,5-difluorophenyl)-1-(7-(6-methoxypyridin-3-yl)-3-(4-(morpholinosulfonyl)phenyl)-4-oxo-3,4-dihydroquinazolin-2-yl)ethyl)acetamide], for which, in data set [1], the CC50 at 4 day was over 1000 nM. Further, the EC50 in data set [2] (setting [3]) is 4 nM.

`Cn1nc(NS(C)(=O)=O)c2c(Cl)ccc(-n3c([C@H](Cc4cc(F)cc(F)c4)NC(=O)Cn4nc(C(F)F)c5c4C(F)(F)[C@@H]4C[C@H]54)nc4cc(-c5cnccn5)ccc4c3=O)c21` (atropisomer, axis not shown; (aR)) [Example 39, N-((S)-1-(3-(4-chloro-1-methyl-3-(methylsulfonamido)-1H-indazol-7-yl)-4-oxo-7-(pyrazin-2-yl)-3,4-dihydroquinazolin-2-yl)-2-(3,5-difluorophenyl)ethyl)-2-((3bS,4aR)-3-(difluoromethyl)-5,5-difluoro-3b,4,4a,5-tetrahydro-1H-cyclopropa[3,4]cyclopenta[1,2-c]pyrazol-1-yl)acetamide] came in with a half-maximal cytotoxic concentration (CC50) at 4 day in data set [1] of over 1000 nM. Moreover, the EC50 in data set [2] (setting [3]) was 0.052 nM.

In data set [1], `Cc1cc(C)nc(-c2ccc3c(=O)n(-c4ccc(Cl)c5c(NS(C)(=O)=O)nn(CC(F)(F)F)c45)c([C@H](Cc4cc(F)cc(F)c4)NC(=O)Cn4nc(C(F)F)c5c4C(F)(F)[C@@H]4C[C@H]54)nc3c2)n1` [Example 164, N-((S)-1-(3-(4-chloro-3-(methylsulfonamido)-1-(2,2,2-trifluoroethyl)-1H-indazol-7-yl)-7-(4,6-dimethylpyrimidin-2-yl)-4-oxo-3,4-dihydroquinazolin-2-yl)-2-(3,5-difluorophenyl)ethyl)-2-((3bS,4aR)-3-(difluoromethyl)-5,5-difluoro-3b,4,4a,5-tetrahydro-1H-cyclopropa[3,4]cyclopenta[1,2-c]pyrazol-1-yl)acetamide] had a half-maximal cytotoxic concentration (CC50) at 4 day of over 500 nM. Moreover, the EC50 in data set [2] (setting [3]) came out at 0.096 nM.

Consider `Cc1cc(Cl)ccc1-c1ccc2c(=O)n(-c3ccc(S(=O)(=O)N4CCOCC4)cc3)c([C@H](Cc3cc(F)cc(F)c3)NC(=O)Cn3nc(C(F)F)c4c3C(F)(F)[C@@H]3C[C@H]43)nc2c1` [Example 15, N-((S)-1-(7-(4-chloro-2-methylphenyl)-3-(4-(morpholinosulfonyl)phenyl)-4-oxo-3,4-dihydroquinazolin-2-yl)-2-(3,5-difluorophenyl)ethyl)-2-((3bS,4aR)-3-(difluoromethyl)-5,5-difluoro-3b,4,4a,5-tetrahydro-1H-cyclopropa[3,4]cyclopenta[1,2-c]pyrazol-1-yl)acetamide], for which the CC50 at 4 day in data set [1] is over 1000 nM. In addition, the concentration giving a half-maximal response (EC50) in data set [2] (setting [3]) came out at 43 nM.

Take `CC(C)n1ccc(CC(=O)N[C@@H](Cc2cc(F)cc(F)c2)c2nc3cc(-c4ccccc4F)ccc3c(=O)n2-c2ccc(Cl)c3c(NS(=O)(=O)C4CC4)nn(CC(F)F)c23)n1` [Example 140, (S)-N-(1-(3-(4-chloro-3-(cyclopropanesulfonamido)-1-(2,2-difluoroethyl)-1H-indazol-7-yl)-7-(2-fluorophenyl)-4-oxo-3,4-dihydroquinazolin-2-yl)-2-(3,5-difluorophenyl)ethyl)-2-(1-isopropyl-1H-pyrazol-3-yl)acetamide]: the CC50 at 4 day in data set [1] was over 500 nM. For the same compound, in data set [2] (setting [3]), the concentration for a half-maximal effect (EC50) came to 0.35 nM.

As to `COc1ccc(-c2ccc3c(=O)n(-c4ccc(S(=O)(=O)N5CCOCC5)cc4)c([C@H](Cc4cc(F)cc(F)c4)NC(=O)Cn4ccc(C5CC5)n4)nc3c2)cn1` [Example 32, (S)-2-(3-cyclopropyl-1H-pyrazol-1-yl)-N-(2-(3,5-difluorophenyl)-1-(7-(6-methoxypyridin-3-yl)-3-(4-(morpholinosulfonyl)phenyl)-4-oxo-3,4-dihydroquinazolin-2-yl)ethyl)acetamide], in data set [1], the cytotoxic concentration (CC50) at 4 day is over 1000 nM. In data set [2] (setting [3]), the concentration for a half-maximal effect (EC50) came out at 5.8 nM.

In data set [1], `CC(C)S(=O)(=O)c1ccccc1-c1ccc2c(=O)n(-c3ccc(Cl)c4c(NS(C)(=O)=O)nn(CC(F)F)c34)c([C@H](Cc3cc(F)cc(F)c3)NC(=O)Cn3nc(C(F)F)c4c3C(F)(F)[C@@H]3C[C@H]43)nc2c1` [Example 178, N-((S)-1-(3-(4-chloro-1-(2,2-difluoroethyl)-3-(methylsulfonamido)-1H-indazol-7-yl)-7-(2-(isopropylsulfonyl)phenyl)-4-oxo-3,4-dihydroquinazolin-2-yl)-2-(3,5-difluorophenyl)ethyl)-2-((3bS,4aR)-3-(difluoromethyl)-5,5-difluoro-3b,4,4a,5-tetrahydro-1H-cyclopropa[3,4]cyclopenta[1,2-c]pyrazol-1-yl)acetamide] gave a CC50 at 4 day of over 500 nM. Besides, in data set [2] (setting [3]), the EC50 stood at 0.065 nM.

For the compound `Cc1ccnc(-c2ccc3c(=O)n(-c4ccc(Cl)c5c(NS(=O)(=O)C6CC6)nn(CC(F)F)c45)c([C@H](Cc4cc(F)cc(F)c4)NC(=O)Cn4nc(C(F)F)c5c4C(F)(F)[C@@H]4C[C@H]54)nc3c2)n1` [Example 159, N-((S)-1-(3-(4-chloro-3-(cyclopropanesulfonamido)-1-(2,2-difluoroethyl)-1H-indazol-7-yl)-7-(4-methylpyrimidin-2-yl)-4-oxo-3,4-dihydroquinazolin-2-yl)-2-(3,5-difluorophenyl)ethyl)-2-((3bS,4aR)-3-(difluoromethyl)-5,5-difluoro-3b,4,4a,5-tetrahydro-1H-cyclopropa[3,4]cyclopenta[1,2-c]pyrazol-1-yl)acetamide], in data set [1], the 50% cytotoxic concentration (CC50) at 4 day is over 500 nM. For the same compound, the EC50 in data set [2] (setting [3]) is 0.1 nM.

Usually CC50 stands for the concentration that lowers cell viability or growth by half. Low values mean greater toxicity to the cells, high ones lower toxicity to the cells. The EC50 is the concentration at which the effect is half-maximal.
